Experimental findings from US5109111A, “CRF antagonists” (The Salk Institute for Biological Studies, priority 1990, dated 1992) are described below.

Square brackets hold non-standard residues; d marks the D form. Peptide text beside a SMILES is read from it. dNle = CCCC[C@@H](N)C(=O)O; Nle = CCCC[C@H](N)C(=O)O; Nva = CCC[C@H](N)C(=O)O

One experiment deals with secretion of ACTH stimulated by oCRF in cultured rat pituitary cells. Briefly: Blocking of oCRF-stimulated ACTH and β-endorphin secretion by cultured rat pituitary cells. The note with it: ACTH secretion stimulated by a 1 nM dose of oCRF; AHC(9-41) = reference. Format: cell-based. The method, then: The effectiveness of synthetic CRF antagonists to block the secretion of ACTH and β-endorphin by cultured rat pituitary cells is measured using the procedure as generally set forth in Vale et al., Endocrinology, 91, 562 (1972).
With [D-2Nal^12, Nle^21,38 ]-hCRF(12-41) [X], the “potency compared to AHC(9-41) in blocking by 50% the secretion of ACTH” value is given as “about 9 times as potent as AHC(9-41)”. In the case of [Nle^21,38, Arg^37 ]-hCRF(12-41) [IX], the “potency compared to AHC(9-41) in blocking by 50% the secretion of ACTH” value is recorded as “more than 6 times as potent as AHC(9-41)”.

Still in this experiment, the particulars now being: result in words.
Regarding `CCCC[C@H](NC(=O)[C@H](CC(C)C)NC(=O)[C@H](CC(C)C)NC(=O)[C@H](CCCNC(=N)N)NC(=O)[C@H](CC(N)=O)NC(=O)[C@H](CC(C)C)NC(=O)[C@H](C)NC(=O)[C@H](C)NC(=O)[C@H](CCC(N)=O)NC(=O)[C@H](CCC(=O)O)NC(=O)[C@H](C)NC(=O)[C@H](C)NC(=O)[C@H](CCC(N)=O)NC(=O)[C@H](CCC(=O)O)NC(=O)[C@H](C)NC(=O)[C@H](CCCCN)NC(=O)[C@H](C)NC(=O)[C@H](CC(C)C)NC(=O)[C@H](CCC(=O)O)NC(=O)[C@H](CC(C)C)NC(=O)[C@H](CCCC)NC(=O)[C@H](CCC(=O)O)NC(=O)[C@H](CCCNC(=N)N)NC(=O)[C@H](CC(C)C)NC(=O)[C@H](CC(C)C)NC(=O)[C@H](Cc1c[nH]cn1)NC(=O)[C@@H](N)Cc1ccccc1)C(=O)N[C@@H](CCC(=O)O)C(=O)N[C@@H](CCC(=O)O)C(=O)N[C@@H](C)C(N)=O` [XXII, [Nle^18,38, Leu^21, Ala^27]-AHC (12-41)] (H-FHLLRE[Nle]LELAKAEQAAEQAALNRLL[Nle]EEA-NH2), the “inhibition of the secretion of ACTH and β-END-LI” value (“inhibition” for short) was “inhibits the secretion of ACTH and β-END-LI”.

As to `CCCC[C@H](NC(=O)[C@H](CC(C)C)NC(=O)[C@H](CC(C)C)NC(=O)[C@H](CCCNC(=N)N)NC(=O)[C@H](CC(N)=O)NC(=O)[C@H](CC(C)C)NC(=O)[C@H](C)NC(=O)[C@H](C)NC(=O)[C@H](CCC(N)=O)NC(=O)[C@H](CCC(=O)O)NC(=O)[C@H](C)NC(=O)[C@H](CCC(=O)O)NC(=O)[C@H](CCCCN)NC(=O)[C@H](CCC(=O)O)NC(=O)[C@H](C)NC(=O)[C@H](CCCCN)NC(=O)[C@H](CCC(=O)O)NC(=O)[C@H](CCSC)NC(=O)[C@H](CCC(=O)O)NC(=O)[C@H](CC(C)C)NC(=O)[C@H](CCSC)NC(=O)[C@H](CCC(=O)O)NC(=O)[C@H](CCCNC(=N)N)NC(=O)[C@H](CC(C)C)NC(=O)[C@H](CC(C)C)NC(=O)[C@H](CCC(=O)O)NC(=O)[C@@H](N)CC(C)C)C(=O)N[C@@H](CCC(=O)O)C(=O)N[C@@H](CCC(=O)O)C(=O)N[C@@H](C)C(N)=O` [XXIII, [Leu^12, Glu^13,22, Lys^26, Nle^38]-AHC (12-41)] (H-LELLREMLEMEKAEKEAEQAALNRLL[Nle]EEA-NH2), the “inhibition” value was “inhibits the secretion of ACTH and β-END-LI”.

With `CCCC[C@H](NC(=O)[C@H](CC(C)C)NC(=O)[C@H](CC(C)C)NC(=O)[C@H](CCCNC(=N)N)NC(=O)[C@H](CC(N)=O)NC(=O)[C@H](C)NC(=O)[C@H](C)NC(=O)[C@H](C)NC(=O)[C@H](CCC(N)=O)NC(=O)[C@H](CCC(=O)O)NC(=O)[C@H](C)NC(=O)[C@H](CCC(=O)O)NC(=O)[C@H](CCC(N)=O)NC(=O)[C@H](CCC(=O)O)NC(=O)[C@H](C)NC(=O)[C@H](CCCCN)NC(=O)[C@H](C)NC(=O)[C@H](CCSC)NC(=O)[C@H](CCC(=O)O)NC(=O)[C@H](CC(C)C)NC(=O)[C@H](CCSC)NC(=O)[C@H](CCC(=O)O)NC(=O)[C@H](CCCNC(=N)N)NC(=O)[C@H](CC(C)C)NC(=O)[C@H](CC(C)C)NC(=O)[C@H](CCC(=O)O)NC(=O)[C@H](N)CC(C)C)C(=O)N[C@@H](CCC(=O)O)C(=O)N[C@@H](CCC(=O)O)C(=O)N[C@@H](C)C(N)=O` [XXV, [D-Leu^12, Glu^13, Ala^33, Nle^38]-AHC (12-41)] (H-[dL]ELLREMLEMAKAEQEAEQAAANRLL[Nle]EEA-NH2), the “inhibition” value is “inhibits the secretion of ACTH and β-END-LI”. The same measure, in the same setting: in the case of `CCCC[C@@H](N)C(=O)N[C@@H](Cc1c[nH]cn1)C(=O)N[C@@H](CC(C)C)C(=O)N[C@@H](CC(C)C)C(=O)N[C@@H](CCCNC(=N)N)C(=O)N[C@@H](CCC(=O)O)C(=O)N[C@@H](CCCC)C(=O)N[C@@H](CC(N)=O)C(=O)N[C@@H](CCC(=O)O)C(=O)N[C@@H](CCCC)C(=O)N[C@@H](CC(=O)O)C(=O)N[C@@H](CCCCN)C(=O)N[C@@H](C)C(=O)N[C@@H](CCC(=O)O)C(=O)N[C@@H](CCC(N)=O)C(=O)N[C@@H](Cc1ccccc1)C(=O)N[C@@H](C)C(=O)N[C@@H](CCC(=O)O)C(=O)N[C@@H](CCC(N)=O)C(=O)N[C@@H](C)C(=O)N[C@@H](C)C(=O)N[C@@H](CC(C)C)C(=O)N[C@@H](CC(N)=O)C(=O)N[C@@H](CCCNC(=N)N)C(=O)N[C@@H](CC(C)C)C(=O)N[C@@H](CC(C)C)C(=O)N[C@@H](CCCC)C(=O)N[C@@H](CCC(=O)O)C(=O)N[C@@H](CCC(=O)O)C(=O)N[C@@H](C)C(N)=O` [XXVII, [D-Nle^12, Nle^18,21,38, Asn^19, Asp^22, Phe^27]-AHC(12-41)] (H-[dNle]HLLRE[Nle]NE[Nle]DKAEQFAEQAALNRLL[Nle]EEA-NH2) it was “inhibits the secretion of ACTH and β-END-LI”; in that of `CCCC[C@H](NC(=O)[C@H](CCCCN)NC(=O)[C@H](C)NC(=O)[C@H](CCSC)NC(=O)[C@H](CCC(=O)O)NC(=O)[C@H](C)NC(=O)[C@@H](NC(=O)[C@H](CCC(=O)O)NC(=O)[C@H](CCCNC(=N)N)NC(=O)[C@H](CC(C)C)NC(=O)[C@H](CC(C)C)NC(=O)[C@H](Cc1c[nH]cn1)NC(=O)[C@H](N)Cc1ccc(O)cc1)C(C)C)C(=O)N[C@@H](CCC(=O)O)C(=O)N[C@@H](CCC(N)=O)C(=O)N[C@@H](CCC)C(=O)N[C@@H](C)C(=O)N[C@@H](CCC(N)=O)C(=O)N[C@@H](CCC(N)=O)C(=O)N[C@@H](C)C(=O)N[C@@H](Cc1c[nH]cn1)C(=O)N[C@@H](CO)C(=O)N[C@@H](CC(N)=O)C(=O)N[C@@H](CCCNC(=N)N)C(=O)N[C@@H](CCCCN)C(=O)N[C@@H](CC(C)C)C(=O)N[C@@H](CCCC)C(=O)N[C@@H](CCC(=O)O)C(=O)N[C@@H](CCCC)C(=O)N[C@H](C(N)=O)[C@@H](C)CC` [XXX, [D-Tyr^12, Ala^19, Lys^23, Nle^24,38,40 Nva^27,]-hCRF(12-41)] (H-[dY]HLLREVAEMAK[Nle]EQ[Nva]AQQAHSNRKL[Nle]E[Nle]I-NH2), “inhibits the secretion of ACTH and β-END-LI”. Same read-out and setting: under “[4ClD-Phe^12, Nle^18,21,38 ]-AHC(9-41) [XX]” stands “inhibits the secretion of ACTH and β-END-LI”; under “[4FD-Phe^12, CML^14,15,19,27,33,37, CMA^22,32,41, Nle^38 ]-AHC(12-41) [XIX]”, “inhibits the secretion of ACTH and β-END-LI”; under “[CML^14,19,27,36, Nle^38 ]-AHC(12-41) [XXVI]”, “inhibits the secretion of ACTH and β-END-LI”.

As for [D-2Nal^12, Nle^21,38 ]-hCRF(12-41) [X], the “inhibition” value is “inhibits the secretion of ACTH and β-END-LI”. Consider “[D-Val^12, Nle^21,38, Ile^24,27, Nva^41 ]-hCRF(11-41) [XXVIII]”, for which the “inhibition” value was “inhibits the secretion of ACTH and β-END-LI”. Regarding [Nle^21,38, Arg^37 ]-hCRF(12-41) [IX], the “inhibition” value was “inhibits the secretion of ACTH and β-END-LI”.
